Entries after “also recorded” stand apart in the source; their conditions may differ. Ends that are not written are not given here.
Columns and labels:
[1] = target: T1, TYR (Agaricus bisporus, UniProt C7FF04); test: TYR inhibitory activity (L-DOPA oxidation); type: biochemical
T1 construct: purchased Shanghai Yuanye Bio-Technology Co., Ltd. (Shanghai, China)
Procedure: Determination and calculation methods of TYR inhibitory activity were referred to the detection method of Ji and modified slightly. Briefly, the TYR was dissolved to prepare solutions using 0.05 M phosphate buffer saline (pH 6.8). Then, the mixed 40 μL of ERJ, 2 U/mL 100 μL of TYR, and 1.0 mmol/L 100 μL of L-DOPA were added in a 96-well plate, and the absorbance at 475 nm was measured immediately after 10 s and recorded as A1. The reaction system was incubated for 190 s at 25 °C and measured again and recorded as A2. We repeated the above steps by replacing the ERJ with buffer and measuring the absorbance value after 10 s, recorded as A3, and the absorbance value after 190 s as A4. The inhibition rate of ERJ on TYR was calculated according to the following equation:(1) Inhibition percentage (%)=(1−ΔA/ΔB) × 100% where, ΔA = A2 − A1, ΔB = A4 − A3.

[2] = target: T1, TYR; parameters: method as in 2 sources, one per row (each row's own in cited_ref): ref [48] = [48]; PMID 34313364; doi:10.1002/ardp.202100204; 48. Krobthong S. Yingchutrakul Y. Samutrtai P. Choowongkomon K. The C-terminally shortened analogs of a hexapeptide derived from Lingzhi hydrolysate with enhanced tyrosinase-inhibitory activity Arch. ||| ref [16],[17] = [16]; PMID 33459057; doi:10.1080/10408398.2021.1871724; 16. Peng Z.Y. Wang G.C. Zeng Q.H. Li Y.F. Liu H.Q. Wang J.J. Zhao Y. A systematic review of synthetic tyrosinase inhibitors and their structure-activity relationship Crit. Rev. Food Sci. Nutr. 2021 62 || [17]; PMID 35603815; doi:10.1111/1750-3841.16160; 17. Xue W. Liu X. Zhao W. Yu Z. Identification and molecular mechanism of novel tyrosinase inhibitory peptides from collagen J. Food Sci. 2022 87 2744 2756 10.1111/1750-3841.16160 35603815; conditions: ref [16],[17]; cited from earlier work
Text: Bioactive peptides are functional peptide fragments produced during the hydrolysis, cleavage, or maturation of proteins, and their relative molecular mass is usually less than 6000 Da.

[3] = ref [47]; cited from earlier work
Text: Guo isolated and purified 29 antioxidant peptides from RJ and verified their antioxidant activity.

[4] = test system: fungus, yeast, and bacteria; conditions: ref [45],[46]; cited from earlier work

T1 sequence (C7FF04 2-392): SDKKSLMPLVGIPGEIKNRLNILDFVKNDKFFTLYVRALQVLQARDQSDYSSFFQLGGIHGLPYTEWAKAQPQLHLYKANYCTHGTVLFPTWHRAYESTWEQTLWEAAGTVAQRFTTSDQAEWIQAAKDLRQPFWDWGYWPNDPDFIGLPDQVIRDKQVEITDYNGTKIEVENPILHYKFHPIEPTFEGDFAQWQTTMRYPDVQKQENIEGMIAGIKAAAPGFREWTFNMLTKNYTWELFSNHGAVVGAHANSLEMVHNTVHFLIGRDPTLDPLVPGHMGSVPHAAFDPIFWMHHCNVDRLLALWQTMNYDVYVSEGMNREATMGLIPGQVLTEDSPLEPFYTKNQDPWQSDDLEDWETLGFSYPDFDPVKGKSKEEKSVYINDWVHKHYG

ILFTLL [ILFTLL]
TYR inhibitory activity (in words) [1]: lowest activity; also recorded: lowest of the three peptides

Oc1ccc(O)cc1 [hydroquinone]
inhibitory effect on TYR activity (in words), literature [2]: strong inhibitory effects

Arg-Tyr
free radical scavenging ability [3]: strong free radical scavenging ability

OC[C@H]1O[C@@H](Oc2ccc(O)cc2)[C@H](O)[C@@H](O)[C@@H]1O [arbutin]
inhibitory effect on TYR activity (in words), literature [2]: strong inhibitory effects

IIPFIF [IIPFIF]
TYR inhibitory activity (in words) [1]: maximum activity; also recorded: highest of the three peptides

Tyr-Tyr
free radical scavenging ability [3]: strong free radical scavenging ability

B1: MRJP-2: major royal jelly protein (protein, UniProt O77061 18-452, looked up)
Major royal jelly protein 2: AIVRENSPRNLEKSLNVIHEWKYFDYDFGSEERRQAAIQSGEYDHTKNYPFDVDQWRDKTFVTILRYDGVPSTLNVISGKTGKGGRLLKPYPDWSFAEFKDCSKIVSAFKIAIDKFDRLWVLDSGLVNRTVPVCAPKLHVFDLKTSNHLKQIEIPHDIAVNATTGKGGLVSLAVQAIDLANTLVYMADHKGDALIVYQNADDSFHRLTSNTFDYDPRYAKMTIDGESFTLKNGICGMALSPVTNNLYYSPLASHGLYYVNTAPFMKSQFGENNVQYQGSEDILNTQSLAKAVSKNGVLFVGLVGNSAVGCWNEHQSLQRQNLEMVAQNDRTLQMIAGMKIKEELPHFVGSNKPVKDEYMLVLSNRMQKIVNDDFNFDDVNFRILGANVKELIRNTHCVNNNQNDNIQNTNNQNDNNQKNNKKNANNQKNNNQNDN
antibacterial properties [4]: have antibacterial properties

B2: MRJP-4: major royal jelly protein (protein, UniProt Q17061 16-464, looked up)
Major royal jelly protein 4: QNIRGGVVRENSSGKNLTNTLNVIHKWKYLDYDFDNDERRQAAIQSGEYDRTKNYPLDVDQWHNKTFLAVIRYNGVPSSLNVVSDKTGNGGRLLQPYPDWSFAKYEDCSGIVSAHKIAIDEYERLWVLDSGLVNNTQPMCSPKLFAFDLNTSQLLKQVEIPHDVATTGKGELVSLTVQAMDSTNTMVYMVDNKNTLIIYQNADDSFHRLSSHTLNHNSDKMSDQQENLTLKEVDNKVYGMALSPVTHNLYYNSPSSENLYYVNTESLMKSENQGNDVQYERVQDVFDSQLTVKAVSKNGVLLFGLANNTLSCWNEHQSLDRQNIDVVARNEDTLQMVVSMKIKQNVPQSGRVNNTQRNEYLLALSDRNQNVLNNDLNLEHVNFQILGANVNDLIRNSRCANFDNQDNNHYNHNHNQARHSSKSDNQNNNQHNDQAHHSSKSNNRHNNND
antibacterial properties [4]: have antibacterial properties
